# Laboratory results as given in PubChem BioAssay (NCI).
#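 48-hour exposure; five concentrations; linearly interpolated endpoints. Definition used: TGI = concentration required for complete inhibition of growth.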
# Tests used:
# Assay in all cases: NCI tumour cell line growth inhibition, 48 h
# [1] = system: 786-0 renal
# [2] = system: A498 renal
# [3] = system: A549 NSCLC
# [4] = system: ACHN renal
# [5] = system: BT-549 breast
# [6] = system: CAKI-1 renal
# [7] = system: CCRF-CEM leukemia
# [8] = system: DU-145 prostate
# [9] = system: EKVX NSCLC
# [10] = system: HCC-2998 colon
# [11] = system: HCT-116 colon
# [12] = system: HCT-15 colon
# [13] = system: HL-60(TB) leukemia
# [14] = system: HOP-92 NSCLC
# [15] = system: HS 578T breast
# [16] = system: HT29 colon
# [17] = system: IGROV1 ovarian
# [18] = system: K-562 leukemia
# [19] = system: KM12 colon
# [20] = system: LOX IMVI melanoma
# [21] = system: M14 melanoma
# [22] = system: MALME-3M melanoma
# [23] = system: MCF7 breast
# [24] = system: MDA-MB-435
# [25] = system: MDA-N
# [26] = system: NCI-H226 lung
# [27] = system: NCI-H460 lung
# [28] = system: NCI-H522 lung
# [29] = system: NCI/ADR-RES ovarian
# [30] = system: OVCAR-3 ovarian
# [31] = system: OVCAR-4 ovarian
# [32] = system: OVCAR-5 ovarian
# [33] = system: OVCAR-8 ovarian
# [34] = system: PC-3 prostate
# [35] = system: RXF 393 renal
# [36] = system: SF-268 CNS
# [37] = system: SF-539 CNS
# [38] = system: SK-MEL-2 melanoma
# [39] = system: SK-MEL-28 melanoma
# [40] = system: SK-MEL-5 melanoma
# [41] = system: SK-OV-3 ovarian
# [42] = system: SN12C renal
# [43] = system: SR leukemia
# [44] = system: SW-620 colon
# [45] = system: T-47D breast
# [46] = system: TK-10 renal
# [47] = system: U251 CNS
# [48] = system: UACC-257 melanoma
# [49] = system: UACC-62 melanoma
# [50] = system: UO-31 renal
# [51] = system: COLO 205 colon
# [52] = system: HOP-62 NSCLC
# [53] = system: MDA-MB-231 breast
# [54] = system: MOLT-4 leukemia
# [55] = system: NCI-H23 lung
# [56] = system: RPMI-8226 leukemia
# [57] = system: SF-295 CNS
# [58] = system: SNB-19 CNS
compound,measurement,setting,value
CCOC(=O)Nc1cc2c(c(N)n1)N=C(c1ccc3ccccc3c1)CN2,TGI,[1],3.81 µM
same,TGI,[2],35.2 µM
same,TGI,[3],23.8 µM
same,TGI,[4],> 83.3 µM
same,TGI,[5],> 57.8 µM
same,TGI,[6],36.9 µM
same,TGI,[7],0.0944 µM
same,TGI,[8],> 100 µM
same,TGI,[9],> 100 µM
same,TGI,[10],1.47 µM
same,TGI,[11],1.49 µM
same,TGI,[12],> 100 µM
same,TGI,[13],> 100 µM
same,TGI,[14],6.16 µM
same,TGI,[15],3.16 µM
same,TGI,[16],1.5 µM
same,TGI,[17],> 100 µM
same,TGI,[18],10.3 µM
same,TGI,[19],3.94 µM
same,TGI,[20],8.1 µM
same,TGI,[21],17.5 µM
same,TGI,[22],19.3 µM
same,TGI,[23],> 100 µM
same,TGI,[24],0.338 µM
same,TGI,[25],1.04 µM
same,TGI,[26],3.5 µM
same,TGI,[27],3.33 µM
same,TGI,[28],0.545 µM
same,TGI,[29],0.16 µM
same,TGI,[30],10.7 µM
same,TGI,[31],> 64.6 µM
same,TGI,[32],> 56.8 µM
same,TGI,[33],10.8 µM
same,TGI,[34],24.7 µM
same,TGI,[35],27.4 µM
same,TGI,[36],> 86.1 µM
same,TGI,[37],0.427 µM
same,TGI,[38],5.15 µM
same,TGI,[39],> 100 µM
same,TGI,[40],4.69 µM
same,TGI,[41],18.9 µM
same,TGI,[42],5.29 µM
same,TGI,[43],> 100 µM
same,TGI,[44],31.4 µM
same,TGI,[45],> 100 µM
same,TGI,[46],> 60.7 µM
same,TGI,[47],> 100 µM
same,TGI,[48],> 100 µM
same,TGI,[49],30.9 µM
same,TGI,[50],> 62.9 µM
CNc1ncnc2c1cnn2CCCCO,TGI,[1],> 100 µM
same,TGI,[2],> 100 µM
same,TGI,[3],> 100 µM
same,TGI,[4],> 100 µM
same,TGI,[5],> 100 µM
same,TGI,[6],> 100 µM
same,TGI,[7],> 100 µM
same,TGI,[51],> 100 µM
same,TGI,[8],> 100 µM
same,TGI,[9],> 100 µM
same,TGI,[10],> 100 µM
same,TGI,[11],> 100 µM
same,TGI,[12],> 100 µM
same,TGI,[13],> 100 µM
same,TGI,[52],> 100 µM
same,TGI,[14],> 100 µM
same,TGI,[15],> 100 µM
same,TGI,[16],> 100 µM
same,TGI,[17],> 100 µM
same,TGI,[18],> 100 µM
same,TGI,[20],> 100 µM
same,TGI,[21],> 100 µM
same,TGI,[22],> 100 µM
same,TGI,[23],> 100 µM
same,TGI,[53],> 100 µM
same,TGI,[24],> 100 µM
same,TGI,[25],> 100 µM
same,TGI,[54],> 100 µM
same,TGI,[26],> 100 µM
same,TGI,[55],> 100 µM
same,TGI,[27],> 100 µM
same,TGI,[28],> 100 µM
same,TGI,[30],> 100 µM
same,TGI,[31],> 100 µM
same,TGI,[32],> 100 µM
same,TGI,[34],> 100 µM
same,TGI,[56],> 100 µM
same,TGI,[35],> 100 µM
same,TGI,[36],> 100 µM
same,TGI,[57],> 100 µM
same,TGI,[37],> 100 µM
same,TGI,[38],> 100 µM
same,TGI,[39],> 100 µM
same,TGI,[40],> 100 µM
same,TGI,[41],> 100 µM
same,TGI,[42],> 100 µM
same,TGI,[58],> 100 µM
same,TGI,[43],> 100 µM
same,TGI,[44],> 100 µM
same,TGI,[45],> 100 µM
same,TGI,[46],> 100 µM
same,TGI,[47],> 100 µM
same,TGI,[48],> 100 µM
same,TGI,[49],> 100 µM
same,TGI,[50],> 100 µM
